Reference: PubChem BioAssay AID330 (DTP/NCI, 2004)
Where “and” joins values, the source holds several entries; their conditions need not be identical. Equal entries are not always repeated. Inconclusive results and toxic doses are left out.

System: P388 leukemia ip, CD2F1 mice, survival T/C
Assay: NCI In Vivo Anticancer Drug Screen. Data for tumor model P388 Leukemia (intraperitoneal) in CD2F1 (CDF1) mice
Details: endpoint: median survival time, higher = longer survival
How it was run: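 Mice carrying the transplanted tumor received test compound or vehicle. Survival was recorded in each group, and the value is the treated-group measurement divided by that of the vehicle-treated control group.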

[1] = dose: 50.0 mg/kg/injection, schedule: Q01DX009 (ip), vehicle: Klucel (hydroxypropylcellulose) (HPC)
[2] = dose: 100.0 mg/kg/injection, schedule: Q01DX009 (ip), vehicle: Klucel (hydroxypropylcellulose) (HPC)
[3] = dose: 200.0 mg/kg/injection, schedule: Q01DX009 (ip), vehicle: Klucel (hydroxypropylcellulose) (HPC)
[4] = dose: 100.0 mg/kg/injection, schedule: Q01DX001 (ip), vehicle: Klucel (hydroxypropylcellulose) (HPC)
[5] = dose: 60.0 mg/kg/injection, schedule: Q01DX005 (ip), vehicle: saline with Tween-80
[6] = dose: 120.0 mg/kg/injection, schedule: Q01DX005 (ip), vehicle: saline with Tween-80
[7] = dose: 50.0 mg/kg/injection, schedule: Q01DX005 (ip), vehicle: saline with Tween-80
[8] = dose: 100.0 mg/kg/injection, schedule: Q01DX005 (ip), vehicle: saline with Tween-80
[9] = dose: 200.0 mg/kg/injection, schedule: Q01DX005 (ip), vehicle: saline with Tween-80
[10] = dose: 50.0 mg/kg/injection, schedule: Q01DX009 (ip), vehicle: saline
[11] = dose: 50.0 mg/kg/injection, schedule: Q01DX009 (ip), vehicle: saline with Tween-80
[12] = dose: 100.0 mg/kg/injection, schedule: Q01DX009 (ip), vehicle: saline with Tween-80
[13] = dose: 60.0 mg/kg/injection, schedule: Q01DX005 (ip), vehicle: saline
[14] = dose: 120.0 mg/kg/injection, schedule: Q01DX005 (ip), vehicle: saline

## O=c1c2cc(Cl)ccc2nc2n1OCC2
[1]
  T/C: 94 % of control
[2]
  T/C: 112 % of control
[3]
  T/C: 104 % of control

## COc1cc2c(cc1OC)C(c1ccc(S(=O)(=O)C(C)C)cc1)NCC2 (stereo unspecified)
[1]
  T/C: 89 % of control
[2]
  T/C: 101 % of control
[3]
  T/C: 108 % of control

## C=[CH][Pb]([CH]=C)([CH]=C)[O]C(C)=O
dose: 1.25 mg/kg/injection, schedule: Q01DX009 (ip), vehicle: saline with Tween-80
  T/C: 110 % of control and 111 % of control
dose: 2.5 mg/kg/injection, schedule: Q01DX009 (ip), vehicle: saline with Tween-80
  T/C: 160 % of control
dose: 5.0 mg/kg/injection, schedule: Q01DX009 (ip), vehicle: saline with Tween-80
  T/C: 151 % of control and 188 % of control

## C=C1C(=O)OC2/C=C(\C)CC(O)/C=C(\C)CC(OC(=O)C3(CO)OC3C)C12 (stereo unspecified)
dose: 25.0 mg/kg/injection, schedule: Q01DX001 (ip), vehicle: Klucel (hydroxypropylcellulose) (HPC)
  T/C: 113 % of control
dose: 50.0 mg/kg/injection, schedule: Q01DX001 (ip), vehicle: Klucel (hydroxypropylcellulose) (HPC)
  T/C: 101 % of control
[4]
  T/C: 108 % of control

## COc1cc(/C=N/N2CN(C(C)C(=O)O)B(NCCC(C)C)N=C2N)cc(OC)c1 (stereo unspecified)
[5]
  T/C: 104 % of control
[6]
  T/C: 111 % of control

## CCCCOP(=O)(O)SP(=O)(O)OCCCC
[4]
  T/C: 103 % of control
dose: 100.0 mg/kg/injection, schedule: Q01DX001 (ip), vehicle: saline
  T/C: 103 % of control and 106 % of control and 98 % of control
dose: 100.0 mg/kg/injection, schedule: Q04DX003 (ip), vehicle: suspension in saline
  T/C: 105 % of control
dose: 200.0 mg/kg/injection, schedule: Q01DX001 (ip), vehicle: Klucel (hydroxypropylcellulose) (HPC)
  T/C: 119 % of control
dose: 200.0 mg/kg/injection, schedule: Q01DX001 (ip), vehicle: saline
  T/C: 106 % of control and 98 % of control and 103 % of control
dose: 200.0 mg/kg/injection, schedule: Q04DX003 (ip), vehicle: suspension in saline
  T/C: 105 % of control
dose: 400.0 mg/kg/injection, schedule: Q01DX001 (ip), vehicle: Klucel (hydroxypropylcellulose) (HPC)
  T/C: 104 % of control
dose: 400.0 mg/kg/injection, schedule: Q01DX001 (ip), vehicle: saline
  T/C: 106 % of control and 103 % of control and 94 % of control
dose: 400.0 mg/kg/injection, schedule: Q04DX003 (ip), vehicle: suspension in saline
  T/C: 110 % of control

## CC(C)CC(N)C(=O)O (stereo unspecified)
[1]
  T/C: 105 % of control
[2]
  T/C: 105 % of control
[3]
  T/C: 94 % of control

## O=C(O)CSCC(=O)Nc1cc(C(F)(F)F)ccc1Cl
[5]
  T/C: 95 % of control
[6]
  T/C: 100 % of control
dose: 240.0 mg/kg/injection, schedule: Q01DX005 (ip), vehicle: saline with Tween-80
  T/C: 96 % of control

## COC(=O)c1ccc(C)c(N(CCO)CCO)c1
[7]
  T/C: 104 % of control
[8]
  T/C: 104 % of control
[9]
  T/C: 104 % of control

## CC(C)(CS)C(=O)O
[10]
  T/C: 103 % of control

## Cc1ccc(C2SCC(=O)N2c2nncs2)s1 (stereo unspecified)
[7]
  T/C: 100 % of control
[8]
  T/C: 92 % of control
[9]
  T/C: 94 % of control

## Cc1c(-c2ccccc2)sc(/N=C/c2cc(Br)cc(Br)c2O)c1C#N
dose: 12.5 mg/kg/injection, schedule: Q01DX009 (ip), vehicle: saline with Tween-80
  T/C: 99 % of control
dose: 25.0 mg/kg/injection, schedule: Q01DX009 (ip), vehicle: saline with Tween-80
  T/C: 98 % of control
[11]
  T/C: 100 % of control
[12]
  T/C: 99 % of control

## CCn1c(O)c(N=NC(=S)NC)c2ccccc21
dose: 9.37 mg/kg/injection, schedule: Q01DX009 (ip), vehicle: saline with Tween-80
  T/C: 101 % of control
dose: 18.75 mg/kg/injection, schedule: Q01DX009 (ip), vehicle: saline with Tween-80
  T/C: 104 % of control
dose: 37.5 mg/kg/injection, schedule: Q01DX009 (ip), vehicle: saline with Tween-80
  T/C: 93 % of control

## Nc1cc2c(cc1Br)-c1ccccc1C2=O
[11]
  T/C: 96 % of control
[12]
  T/C: 97 % of control
dose: 200.0 mg/kg/injection, schedule: Q01DX009 (ip), vehicle: saline with Tween-80
  T/C: 90 % of control

## CCCCCCCC1C(=O)OC2CC3C(C)=CC(=O)C(O)C3(C)C3C4(O)OCC23C1C(C)C4O (stereo unspecified)
dose: 1.25 mg/kg/injection, schedule: Q01DX005 (ip), vehicle: Klucel (hydroxypropylcellulose) (HPC)
  T/C: 107 % of control
dose: 2.5 mg/kg/injection, schedule: Q01DX005 (ip), vehicle: Klucel (hydroxypropylcellulose) (HPC)
  T/C: 108 % of control
dose: 5.0 mg/kg/injection, schedule: Q01DX005 (ip), vehicle: Klucel (hydroxypropylcellulose) (HPC)
  T/C: 107 % of control and 116 % of control
dose: 10.0 mg/kg/injection, schedule: Q01DX005 (ip), vehicle: Klucel (hydroxypropylcellulose) (HPC)
  T/C: 117 % of control and 124 % of control

## O=C(O)c1[nH]c(=O)[nH]c(=O)c1[N+](=O)[O-]
dose: 50.0 mg/kg/injection, schedule: Q01DX005 (ip), vehicle: Klucel (hydroxypropylcellulose) (HPC)
  T/C: 93 % of control
dose: 100.0 mg/kg/injection, schedule: Q01DX005 (ip), vehicle: Klucel (hydroxypropylcellulose) (HPC)
  T/C: 98 % of control
dose: 200.0 mg/kg/injection, schedule: Q01DX005 (ip), vehicle: Klucel (hydroxypropylcellulose) (HPC)
  T/C: 98 % of control

## CCCS(=O)(=O)/C=C/C(=O)c1ccc2ccccc2c1
dose: 100.0 mg/kg/injection, schedule: Q04DX003 (ip), vehicle: saline
  T/C: 105 % of control
dose: 200.0 mg/kg/injection, schedule: Q04DX003 (ip), vehicle: saline
  T/C: 108 % of control
dose: 400.0 mg/kg/injection, schedule: Q04DX003 (ip), vehicle: saline
  T/C: 106 % of control

## CN(C)CC#CCCCS(=O)(=O)c1ccccc1
[13]
  T/C: 97 % of control
[14]
  T/C: 99 % of control

## C=C(CCCCC)C(=O)/C=C/c1ccc(Cl)c(Cl)c1
dose: 6.25 mg/kg/injection, schedule: Q01DX009 (ip), vehicle: other
  T/C: 97 % of control
dose: 12.5 mg/kg/injection, schedule: Q01DX009 (ip), vehicle: other
  T/C: 107 % of control
dose: 25.0 mg/kg/injection, schedule: Q01DX009 (ip), vehicle: other
  T/C: 108 % of control
dose: 50.0 mg/kg/injection, schedule: Q01DX009 (ip), vehicle: other
  T/C: 109 % of control

## O=P(C/C=C/CO)(c1ccccc1)c1ccccc1
[7]
  T/C: 98 % of control
[8]
  T/C: 98 % of control
[9]
  T/C: 103 % of control

## CCOC(CSc1ncnc2nc[nH]c12)OCC
[10]
  T/C: 100 % of control
dose: 100.0 mg/kg/injection, schedule: Q01DX009 (ip), vehicle: saline
  T/C: 96 % of control
dose: 200.0 mg/kg/injection, schedule: Q01DX009 (ip), vehicle: saline
  T/C: 112 % of control

## C[C@@H]1C[C@@H]2OC(=O)[C@]3(C)[C@H]2[C@@H](OC3(C)O)[C@]2(C)C(=O)C=C[C@@H]12 (stereo partly specified)
dose: 4.25 mg/kg/injection, schedule: Q01DX009 (ip), vehicle: Klucel (hydroxypropylcellulose) (HPC)
  T/C: 104 % of control
dose: 8.5 mg/kg/injection, schedule: Q01DX009 (ip), vehicle: Klucel (hydroxypropylcellulose) (HPC)
  T/C: 102 % of control and 109 % of control
dose: 17.0 mg/kg/injection, schedule: Q01DX009 (ip), vehicle: Klucel (hydroxypropylcellulose) (HPC)
  T/C: 119 % of control and 120 % of control

## Cc1cc[n+](C2=C(Nc3ccccc3)C(=O)c3ccccc3C2=O)cc1
dose: 12.5 mg/kg/injection, schedule: Q01DX005 (ip), vehicle: saline with Tween-80
  T/C: 106 % of control
dose: 25.0 mg/kg/injection, schedule: Q01DX005 (ip), vehicle: saline with Tween-80
  T/C: 114 % of control
[7]
  T/C: 116 % of control and 122 % of control
[8]
  T/C: 118 % of control

## O=C(O)CNC1CCCCC1
[13]
  T/C: 95 % of control
[14]
  T/C: 92 % of control
dose: 240.0 mg/kg/injection, schedule: Q01DX005 (ip), vehicle: saline
  T/C: 87 % of control

## CC1SC(c2ccc(Cl)cc2)N2C(=O)C(C)SC(c3ccc(Cl)cc3)N2C1=O (stereo unspecified)
[11]
  T/C: 87 % of control
[12]
  T/C: 86 % of control

## CCN(CC)CCOc1ccc(-c2cc(-c3ccccc3)nc(N)n2)cc1
dose: 25.0 mg/kg/injection, schedule: Q01DX005 (ip), vehicle: saline
  T/C: 106 % of control
dose: 50.0 mg/kg/injection, schedule: Q01DX005 (ip), vehicle: saline
  T/C: 98 % of control and 100 % of control and 106 % of control
dose: 100.0 mg/kg/injection, schedule: Q01DX005 (ip), vehicle: saline
  T/C: 111 % of control and 114 % of control and 123 % of control

## CC(=O)N(C)c1ccc2c(c1)C(=O)c1ccccc1-2
[7]
  T/C: 102 % of control
[8]
  T/C: 95 % of control
[9]
  T/C: 92 % of control
